Results on one compound are retold here after patent US9723838B2, “Pyrazolyl amide compounds and uses thereof” (SHENYANG SINOCHEM AGROCHEMICALS R&D CO., LTD., priority 2013, dated 2017).

The test system of experiment [1] is diamondback moth. The experiment in a line: Test against diamondback moth (leaf disc spraying). Conditions: Plutella xylostella, foliar, 72 h. The format is in vivo. The text has this: The test method is spraying. The leaves of cabbage grown in greenhouse were chosen, removed the surface waxy layer and perforated to get 3 cm diameter leaf discs by the hole puncher. The test compounds were sprayed on both sides of the discs by Airbrush according to the designed concentration from low to high dose. The cabbage discs were placed in 6 cm diameter Petri dish with filter paper. Tentest insects (3 instar) were introduced on each treatment after drying. Each treatment set the pure water as CK. The treated discs were placed in a certain condition. After 72 h, the number of surviving insects was investigated and the mortality rates were calculated.

Experiment [2] deals with army worm. The experiment in a line: Test against army worm (corn leaf spraying). Conditions: 72 h. The experiment is classed as in vivo. Here is the method: The test method is spraying. The middle part of fresh corn leaves were chosen and cut into 3 cm sects. The test compounds were sprayed on both sides of the sects by Airbrush according to the designed concentration from low to high dose. The sects were placed in 6 cm diameter Petri dish with filter paper. Ten test insects (3 instar) were introduced on each treatment after drying. Each treatment set the pure water as CK. The treated sects were placed in a certain condition. After 72 h, the number of surviving insects was investigated and the mortality rates were calculated.

The subject of experiment [3] is green peach aphid. The experiment in a line: Test against green peach aphid (spraying). The format is in vivo. Conditions: Myzus persicae, 48 h. How it is done: According to the solubility of test compounds, the compounds are dissolved in acetone or dimethyl sulfoxide, and then diluted with 0.1% aqueous solution of Tween 80 to form the test liquid 50 ml, the content of acetone or dimethyl sulfoxide in the total solution is not more than 10%.
The 6 cm diameter Petri dish with a layer of filter paper was chosen, a moderate amount of water was added to preserve moisture. A suitable piece of cabbage leaf with 30-50 green peach aphids was excised from a culture plant. Remove the winged and positive aphids, the leaf was placed to the Petri dish above with back upward. The test compounds were sprayed on both sides of the leaf by Airbrush (spray pressure: 10 psi, equate to 0.7 kg/cm^2; spray volume: 0.5 mL; spray distance: 15-20 cm). The treated Petri dishes were placed in a chamber of 23-25° C., 40%-60% relative humidity, L/D 13 h: 11 h. To keep the leaf fresh, a moderate amount of water was added to the Petri dish during the observation. After 48 h, the number of surviving insects was investigated and the mortality rates were calculated.

In experiment [4] the test system is diamond back moth. Conditions: disclosed in CN1653051A; cited from earlier work.
In experiment [5] the test system is armyworm. Conditions: disclosed in CN1653051A; cited from earlier work.

What is called mortality is the share of the test organisms that died. Low readings indicate more survivors, high ones fewer survivors. On to `CC(NC(=O)c1cc(F)cc(Cl)c1NC(=O)c1cc(Br)nn1-c1ncccc1Cl)C(N)=O` (centres unmarked) [KC2, reference compound], for which, in experiment [1], the mortality at 0.156 ppm was found to be 30%, the mortality at 0.313 ppm was found to be 45.8% and the mortality at 0.63 ppm was found to be 63.2%. In experiment [2], this compound yielded a mortality at 2.5 ppm of 0%, a mortality at 5 ppm of 16.7% and a mortality at 10 ppm of 61.6%. For the same compound, in experiment [3], the mortality at 2.5 ppm was 0%, the mortality at 5 ppm came out at 57.6% and the mortality at 10 ppm stood at 70.4%. Moreover, the “insecticidal activity against diamond back moth” value in experiment [4] is listed as “high activity”. For the same compound, the “insecticidal activity against armyworm” value in experiment [5] was “high activity”.
